Assays:
[1] = test system: retinal pigment epithelial cell line ARPE-19; test: Epithelial-mesenchymal transition (cadherin 1 / vimentin, confocal microscopy) in H2O2-treated retinal pigment epithelial cells; format: cell-based; details: ARPE-19, H2O2 50 µM; metformin 1 mM (positive control)
Text: (§1) Reactive oxygen species were generated by treating retinal pigment epithelial cell line ARPE-19 with hydrogen peroxide (H2O2).

[2] = test system: mouse model of age-related macular degeneration; test: Short-term administration in NaIO3 mouse model of age-related macular degeneration (phalloidin-stained RPE/choroid flat mount); format: in vivo, C57BL/6 mice; details: NaIO3 20 mg/kg IV; metformin 4 mg/mL in drinking water for 7 days before NaIO3
Text: Mice injected with sodium iodate (NaIO3) are used as a representative model of age-related macular degeneration. A mouse model of age-related macular degeneration was established by injecting NaIO3 into C57BL/6 mice, thereby inducing oxidative stress specific to retinal pigment epithelial cells and causing damage.

[3] = test system: retinal pigment epithelial cell line ARPE-19; test: Reduction of reactive oxygen species (DCF-DA fluorescence microscopy) in H2O2-treated retinal pigment epithelial cells; format: cell-based; details: ARPE-19, H2O2 50 µM; metformin 1 mM (positive control)
Text: as §1

CN(C)C(=N)N=C(N)N [metformin]
epithelial-mesenchymal transition [1]: reduced
tight junction structure [2]: maintained
DCF-DA fluorescence intensity [3]: decreased
